System: CD4+ T cells
Experiment: IFN-γ ELISPOT of CD4+ T cells presensitized with overlapping NY-ESO-1 18 mer peptides
Type: cell-based, human
Details: for Patient T cells 1 / Patient T cells 2 / Patient T cells 3: IFN-γ ELISPOT; for Patient T cells 1: day 12, CD4+ T cells of patient 1, autologous peptide pulsed EBV-B cells as targets; for Patient T cells 2: day 12, CD4+ T cells of patient 2, autologous peptide pulsed EBV-B cells as targets; for Patient T cells 3: day 12, CD4+ T cells of patient 3, autologous peptide pulsed EBV-B cells as targets; for patients whose CD4+ T cells recognized the peptide: three patients tested
Method: Peripheral blood mono-nuclear cells (“PBMCs”) were separated from heparinized blood via Ficoll density gradient separation, using standard, art recognized techniques. Once this was done, the CD4^+ and CD8^+ T cells were separated from each other using magnetic cell sorting techniques which are well known to the art, producing CD4^+, CD8^+, and CD4^−/CD8^− cell populations.
A series of 18 mer peptides were prepared from the amino acid sequence of NY-ESO-1 as set forth in, e.g., U.S. Pat. No. 5,804,381, incorporated by reference. The peptides were designed to cover the entire sequence of NY-ESO-1, and to provide overlap.
The peptides were then individually pulsed to antigen presenting cells (“APCs”). These were CD4^−/CD8^− PBMCs taken from the same subjects who had provided the CD4^+ and CD8^+ cells. These APCs were irradiated with 3000 rads, and then pulsed with one of the peptides, at a concentration of 10 μg/ml, for 1 hour, in serum free medium. These APCs were then washed, and added to the CD4^+ cells. In the pulsing experiments, the peptides were solubilized in DMSO (100%) and then diluted with PBS to a final concentration of 10% DMSO. The CD4^+ cells had been cultured in a medium of L-arginine (242 mg/l), L-asparagene (50 mg/l), L-glutamine (300 mg/l), penicillin (10 IU/ml), streptomycin (100 μg/ml), 1% non-essential amino acids, 10% HS, and 10 ng/ml of recombinant human IL-2.
The CD4^+ T cells were restimulated weekly with 1 μg/ml of the peptide being used. On day 12, each CD4^+ culture was assayed for NY-ESO-1 peptide recognition, using the ELISPOT assay of lager, et al., Proc. Natl. Acad. Sci. USA, 97(9):4760-4765 (2000), incorporated by reference. To elaborate on this procedure, flat-bottomed, 96-well nitrocellulose plates were coated with 5 μg/ml of anti-interferon-gamma antibody and incubated overnight at 4° C. After washing with PBS, plates were blocked with 10% human serum (HS) for 1 hour at 37° C. Depending on the effector:target ratio used, various numbers of presensitized CD4^+ T-cells were added to each well along with 5×10^4 autologous peptide pulsed EBV transfected B cells (“EBV-B cells”) serving as target cells and incubated for 16 hours at 37° C. in TCM without IL-2. Plates were then washed extensively (6 times with a solution of 0.05% Tween 20/PBS), and biotinylated anti-interferon-gamma detection antibody was added at a concentration of 0.5 μg/ml. After incubation for 2 h at 37° C., plates were washed and incubated with ABC-AP Vectastain for 1 hour. Plates were washed again and developed with substrate (BCIP/NPT) until blue spots were visible. The number of blue spots/well represented the proportion of NY-ESO-1 specific CD4^+ T-cells/well was finally counted under the microscope.
The EBV-B-cells were generated from each patients' PBMC following standard methods and maintained in RPMI 1640 medium supplemented with 10 mM Hepes buffer, L-arginine (242 mg/l), L-asparagine (50mg/l), L-glutamine (300 mg/l), penicillin (10 IU/ml), streptomycin (100 μg/ml), 1% non-essential amino acids, and 10% FCS. […] PBMC's or EBV-B-cells were molecularly typed for HLA expression using standard procedures.

Row | Substance | Patient T cells 1 | Patient T cells 2 | Patient T cells 3 | patients whose CD4+ T cells recognized the peptide
1 | P25-42: synthetic 18 mer peptide, amino acids 25-42 of NY-ESO-1 (DGPGGNAGGPGEAGATGG; UniProt P78358 25-42, looked up, fragment) [Peptide P25-42] | − (− indicates <50 spots) | − (− indicates <50 spots) | − (− indicates <50 spots) | 
2 | P13-30: synthetic 18 mer peptide, amino acids 13-30 of NY-ESO-1 (GDADGPGGPGIPDGPGGN; UniProt P78358 13-30, looked up, fragment) [Peptide P13-30] | − (− indicates <50 spots) | − (− indicates <50 spots) | − (− indicates <50 spots) | 
3 | p133-150: synthetic 18 mer peptide, amino acids 133-150 of NY-ESO-1 (LTIRLTAADHRQLQLSIS; UniProt P78358 133-150, looked up, fragment) | − (− indicates <50 spots) | − (− indicates <50 spots) | − (− indicates <50 spots) | 
4 | p151-168: synthetic 18 mer peptide, amino acids 151-168 of NY-ESO-1 (SCLQQLSLLMWITQCFLP; UniProt P78358 151-168, looked up, fragment) | − (− indicates <50 spots) | − (− indicates <50 spots) | − (− indicates <50 spots) | 
5 | p109-126: synthetic 18 mer peptide, amino acids 109-126 of NY-ESO-1 (LAQDAPPLPVPGVLLKEF; UniProt P78358 109-126, looked up, fragment) | − (− indicates <50 spots) | − (− indicates <50 spots) | − (− indicates <50 spots) | 
6 | p1-18: synthetic 18 mer peptide, amino acids 1-18 of NY-ESO-1 (MQAEGRGTGGSTGDADGP; UniProt P78358 1-18, looked up, fragment) | − (− indicates <50 spots) | − (− indicates <50 spots) | − (− indicates <50 spots) | 
7 | P31-48: synthetic 18 mer peptide, amino acids 31-48 of NY-ESO-1 (AGGPGEAGATGGRGPRGA; UniProt P78358 31-48, looked up, fragment) [Peptide P31-48] | − (− indicates <50 spots) | − (− indicates <50 spots) | − (− indicates <50 spots) | 
8 | p145-162: synthetic 18 mer peptide, amino acids 145-162 of NY-ESO-1 (LQLSISSCLQQLSLLMWI; UniProt P78358 145-162, looked up, fragment) | − (− indicates <50 spots) | − (− indicates <50 spots) | − (− indicates <50 spots) | 
9 | p91-108: synthetic 18 mer peptide, amino acids 91-108 of NY-ESO-1 (YLAMPFATPMEAELARRS; UniProt P78358 91-108, looked up, fragment) | − (− indicates <50 spots) | − (− indicates <50 spots) | − (− indicates <50 spots) | 
10 | p97-114: synthetic 18 mer peptide, amino acids 97-114 of NY-ESO-1 (ATPMEAELARRSLAQDAP; UniProt P78358 97-114, looked up, fragment) | − (− indicates <50 spots) | + (+ indicates >50 spots (all + scores indicated were >100 spots)) | − (− indicates <50 spots) | one patient
11 | p115-132: synthetic 18 mer peptide, amino acids 115-132 of NY-ESO-1 (PLPVPGVLLKEFTVSGNI; UniProt P78358 115-132, looked up, fragment) | − (− indicates <50 spots) | − (− indicates <50 spots) | − (− indicates <50 spots) | 
12 | P19-36: synthetic 18 mer peptide, amino acids 19-36 of NY-ESO-1 (GGPGIPDGPGGNAGGPGE; UniProt P78358 19-36, looked up, fragment) [Peptide P19-36] | − (− indicates <50 spots) | − (− indicates <50 spots) | − (− indicates <50 spots) | 
13 | P79-96: synthetic 18 mer peptide, amino acids 79-96 of NY-ESO-1 (GARGPESRLLEFYLAMPF; UniProt P78358 79-96, looked up, fragment) [Peptide P79-96] | − (− indicates <50 spots) | − (− indicates <50 spots) | − (− indicates <50 spots) | 
14 | p7-24: synthetic 18 mer peptide, amino acids 7-24 of NY-ESO-1 (GTGGSTGDADGPGGPGIP; UniProt P78358 7-24, looked up, fragment) | − (− indicates <50 spots) | − (− indicates <50 spots) | − (− indicates <50 spots) | 
15 | P43-60: synthetic 18 mer peptide, amino acids 43-60 of NY-ESO-1 (RGPRGAGAARASGPGGGA; UniProt P78358 43-60, looked up, fragment) [Peptide P43-60] | − (− indicates <50 spots) | + (+ indicates >50 spots (all + scores indicated were >100 spots)) | − (− indicates <50 spots) | one patient
16 | p139-156: synthetic 18 mer peptide, amino acids 139-156 of NY-ESO-1 (AADHRQLQLSISSCLQQL; UniProt P78358 139-156, looked up, fragment) | − (− indicates <50 spots) | − (− indicates <50 spots) | − (− indicates <50 spots) | 
17 | p85-102: synthetic 18 mer peptide, amino acids 85-102 of NY-ESO-1 (SRLLEFYLAMPFATPMEA; UniProt P78358 85-102, looked up, fragment) | − (− indicates <50 spots) | − (− indicates <50 spots) | − (− indicates <50 spots) | 
18 | p157-174: synthetic 18 mer peptide, amino acids 157-174 of NY-ESO-1 (SLLMWITQCFLPVFLAQP; UniProt P78358 157-174, looked up, fragment) | − (− indicates <50 spots) | − (− indicates <50 spots) | − (− indicates <50 spots) | 

Reference: patent US7632506B2, “Identification of new NY-ESO-1 epitopes recognized by CD4+ T-cells” (Ludwig Institute for Cancer Research, priority 2005, dated 2009)
